{
  "source": "paper PMC11494886",
  "about": "“Discovery and design of molecular glue enhancers of CDK12–DDB1 interactions for targeted degradation of cyclin K” (RSC Chemical Biology, 2024)",
  "system": "cyclin K",
  "assay": "Immunoblot of cyclin K levels in MDA-MB-231 cells",
  "format": "cell-based, human",
  "conditions": "SR-4835 500 nM, SR-4784 1-2 μM 2 hours, SR-4784-PAP 2 μM 2 hours",
  "protocol": "THZ531 was used as a negative control as it is known to make a covalent bond with Cys1039 in a C-terminal extension of the kinase domain, thereby preventing this helix-loop-helix (HLH)-like fold from binding in a cleft between the DDB1 BPA and BPC domains (Fig. 1B, right panels). […] An immunofluorescence-based assay developed for visualizing loss of nuclear cyclin K also confirmed the above observations (Fig. 1H and Fig. S1, ESI ^†).\nTotal cell lysates were prepared using RIPA lysis buffer (Millipore Sigma) supplemented with protease and phosphatase inhibitors (Roche). Protein concentrations were estimated using the BCA protein assay kit (Pierce, Thermo Fisher Scientific). Equal amounts of proteins were separated using NuPAGE 4–12% Bis-Tris gels (Thermo Fisher Scientific). For CLICK chemistry pulldown experiments, proteins in the eluates were resolved using 3–8% Tris–acetate gels (Thermo Fisher Scientific). Proteins were transferred to nitrocellulose membranes using NuPAGE transfer buffer (Thermo Fisher Scientific). Membranes were blocked in LI-COR blocking buffer for 1 hour at room temperature and then probed with primary antibodies diluted in the same blocking buffer overnight at 4 °C. To detect the primary antibodies, membranes were incubated with IR-680 or IR-800 conjugated secondary antibodies (LI-COR) diluted in LI-COR blocking buffer at room temperature for 1 hour. Washes with 0.01% Tween-phosphate buffer were performed after primary and secondary antibody incubation steps. Signals from the membrane were recorded by scanning on a LI-COR Odyssey imager. Bands were quantified using Image Studio Lite (LI-COR Biosciences) or the ImageJ program.\nTo visualize the degradation of cyclin K, total cell lysates were subjected to SDS-PAGE and western blotting.",
  "data": [
    {"smiles": "Cn1cc(-n2cnc3c(NCc4nc5cc(Cl)c(Cl)cc5[nH]4)nc(N4CCOCC4)nc32)cn1", "note": "[SR-4835]", "values": [
      {"measurement": "cyclin K degradation (immunoblot)", "result": "rapidly degrades cyclin K"}
    ]}
  ]
}
